Results on one molecule are retold here after patent US11311609B2, “Regulating chimeric antigen receptors” (DANA-FARBER CANCER INSTITUTE, INC., priority 2017, dated 2022).

In assay [1] the test system is CD19 positive tumor cells (Daudi, Raji). Description: Co-culture depletion of CD19 positive tumor cells by SMART-CAR expressing Jurkat T-cells, flow cytometry with CD19-FITC antibody. Format: cell-based. As to the method: FIG. 28 is a schematic depicting the experimental setup used in FIG. 18 to evaluate the ability of SMART-CAR expressing Jurkat cells to deplete CD19-positive tumor cells. SMART-CAR expressing Jurkat cells are incubated with CD19-positive target tumor cells at the indicated ratio for a given amount of time (Example 25). CD19-positive target tumor cell depletion can be monitored by measuring levels of CD19.
FIG. 30 is a schematic depicting the experimental setup used in FIG. 21 and described in Example 26 to illustrate the chemical control of SMART-CAR expression and subsequent activity against CD19 positive tumor cells using dFKBP7. SMART-CAR expressing Jurkat cells were pretreated with dFKBP7 at 250 nM for 4 hours to allow for maximal degradation of SMART-CAR. The Jurkat cells were then harvested and washed three times to remove dFKBP7. Jurkat cells were split into two experimental arms. The first arm (top, blue) was treated with DMSO control and the second arm (bottom, green) was retreated with 250 nM dFKBP7. The two experimental arms were then mixed at a 1:1 ratio with CD19 positive tumor cells and CD19-positive tumor cells monitored by flow cytometry.
FIG. 33 is a line plot tracking CD19 positive tumor cells during alternating exposure and removal of 250 nM of dFKBP7 in a 30 hour time course. […]
FIG. 28 illustrates the experimental design to evaluate the functionality of SMART-CAR expressing Jurkat T-cells to deplete CD19 positive target tumor cells. […] Co-cultured cells were pelleted, stained with a CD19-FITC antibody, fixed, and CD19 levels measured via flow cytometry.
SMART-CAR expressing Jurkat cells were pretreated with dFKBP7 at 250 nM for 4 hours to allow for maximal degradation of SMART-CAR. […] The two experimental arms were then mixed at a 1:1 ratio with CD19 positive tumor cells and CD19-positive tumor cells monitored by flow cytometry. […]
FIG. 32 is a graph that exemplifies the linear relationship between number of SMART-CAR expressing T-cells and functional killing of CD19 positive target tumor cells. […] CD19 positive tumor cells were then quantified using flow cytometry with a directly conjugated CD19-FITC antibody. […]

In another assay the target is T1, CD19-CAR-dTAG (Homo sapiens, UniProt P62942+Q96SW2, F37V/H95N/M50V/V99I).
T1 construct: HA; expressed in transfected cells; host or cells: Jurkat T-cells, lentiviral transduction, blasticidin selection
Put plainly: Immunoblot of CD19-CAR-dTAG degradation in Jurkat T-cells. The assay is classed as cell-based. The method, then:
FIG. 14A and FIG. 14B are immunoblots of cells treated with heterobifunctional compounds described in the present invention.
FIG. 15A and FIG. 15B are immunoblots of cells treated with bi-functional molecules described in the present invention.
FIG. 16 is an immunoblot of cells treated with heterobifunctional compounds described in the present invention.
At 4 and 12 hours, the dFKBP7 was washed out of the Jurkat cells. At each indicated timepoint, Jurkat cells were harvest to monitor CD19-CAR-dTAG expression levels via immunoblot analysis. FIG. 17B is the resulting immunoblot from the experimental design in FIG. 17A.
Jurkat T-cells were transduced with lentivirus expressing CD19-CAR-dTAG. Cells were selected with blasticidin and expanded.
Jurkat T-cells were engineered to express CD19-CAR-dTAG. Cells were treated with the indicated dose of dFKBP7 or dFKBP13 for 4 hours before lysates were prepared for western immunoblot analysis.
Jurkat T-cells were engineered to express CD19-CAR-dTAG. Cells were treated with 250 nM dFKBP7 or dFKBP13 for the indicated time before lysates were prepared for immunoblot analysis.
At 4 and 12 hours, the dFKBP7 was washed out of the Jurkat cells. At each indicated timepoint, Jurkat cells were harvest to monitor CD19-CAR-dTAG expression levels via immunoblot analysis.
For orientation: In western blotting, separated proteins are transferred to a membrane and probed.

T1 sequence (P62942 with tags, fused parts or gaps F37V/M50V/H95N/V99I limits assumed): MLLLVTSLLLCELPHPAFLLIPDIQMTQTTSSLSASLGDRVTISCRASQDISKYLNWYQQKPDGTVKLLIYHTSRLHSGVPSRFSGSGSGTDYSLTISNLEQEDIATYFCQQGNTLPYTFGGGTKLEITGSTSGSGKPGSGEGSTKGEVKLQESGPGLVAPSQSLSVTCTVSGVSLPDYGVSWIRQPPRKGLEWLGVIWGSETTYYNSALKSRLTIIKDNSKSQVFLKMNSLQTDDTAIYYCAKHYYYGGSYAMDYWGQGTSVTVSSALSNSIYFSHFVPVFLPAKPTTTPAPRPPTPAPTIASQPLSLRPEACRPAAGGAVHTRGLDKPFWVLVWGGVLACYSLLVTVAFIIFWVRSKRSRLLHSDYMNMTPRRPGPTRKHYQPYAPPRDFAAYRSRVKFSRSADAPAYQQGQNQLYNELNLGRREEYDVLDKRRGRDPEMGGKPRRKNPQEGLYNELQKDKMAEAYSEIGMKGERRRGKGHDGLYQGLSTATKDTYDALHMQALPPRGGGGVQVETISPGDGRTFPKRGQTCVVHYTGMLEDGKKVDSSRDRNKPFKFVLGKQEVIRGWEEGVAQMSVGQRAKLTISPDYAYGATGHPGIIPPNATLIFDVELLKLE
T1 sequence (Q96SW2 whole entry): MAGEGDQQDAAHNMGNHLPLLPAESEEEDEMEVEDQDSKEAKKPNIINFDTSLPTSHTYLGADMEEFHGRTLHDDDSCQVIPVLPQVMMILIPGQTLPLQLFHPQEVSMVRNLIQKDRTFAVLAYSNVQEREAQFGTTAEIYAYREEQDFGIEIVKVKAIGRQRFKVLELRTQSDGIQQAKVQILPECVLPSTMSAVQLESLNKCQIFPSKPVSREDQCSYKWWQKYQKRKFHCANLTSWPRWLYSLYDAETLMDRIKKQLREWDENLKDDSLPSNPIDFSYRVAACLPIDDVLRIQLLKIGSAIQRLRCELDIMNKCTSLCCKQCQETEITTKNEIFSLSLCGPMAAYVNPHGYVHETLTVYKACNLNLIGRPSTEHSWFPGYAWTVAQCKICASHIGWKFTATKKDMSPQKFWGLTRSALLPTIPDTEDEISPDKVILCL
T1 sequence (Q16531 whole entry partner): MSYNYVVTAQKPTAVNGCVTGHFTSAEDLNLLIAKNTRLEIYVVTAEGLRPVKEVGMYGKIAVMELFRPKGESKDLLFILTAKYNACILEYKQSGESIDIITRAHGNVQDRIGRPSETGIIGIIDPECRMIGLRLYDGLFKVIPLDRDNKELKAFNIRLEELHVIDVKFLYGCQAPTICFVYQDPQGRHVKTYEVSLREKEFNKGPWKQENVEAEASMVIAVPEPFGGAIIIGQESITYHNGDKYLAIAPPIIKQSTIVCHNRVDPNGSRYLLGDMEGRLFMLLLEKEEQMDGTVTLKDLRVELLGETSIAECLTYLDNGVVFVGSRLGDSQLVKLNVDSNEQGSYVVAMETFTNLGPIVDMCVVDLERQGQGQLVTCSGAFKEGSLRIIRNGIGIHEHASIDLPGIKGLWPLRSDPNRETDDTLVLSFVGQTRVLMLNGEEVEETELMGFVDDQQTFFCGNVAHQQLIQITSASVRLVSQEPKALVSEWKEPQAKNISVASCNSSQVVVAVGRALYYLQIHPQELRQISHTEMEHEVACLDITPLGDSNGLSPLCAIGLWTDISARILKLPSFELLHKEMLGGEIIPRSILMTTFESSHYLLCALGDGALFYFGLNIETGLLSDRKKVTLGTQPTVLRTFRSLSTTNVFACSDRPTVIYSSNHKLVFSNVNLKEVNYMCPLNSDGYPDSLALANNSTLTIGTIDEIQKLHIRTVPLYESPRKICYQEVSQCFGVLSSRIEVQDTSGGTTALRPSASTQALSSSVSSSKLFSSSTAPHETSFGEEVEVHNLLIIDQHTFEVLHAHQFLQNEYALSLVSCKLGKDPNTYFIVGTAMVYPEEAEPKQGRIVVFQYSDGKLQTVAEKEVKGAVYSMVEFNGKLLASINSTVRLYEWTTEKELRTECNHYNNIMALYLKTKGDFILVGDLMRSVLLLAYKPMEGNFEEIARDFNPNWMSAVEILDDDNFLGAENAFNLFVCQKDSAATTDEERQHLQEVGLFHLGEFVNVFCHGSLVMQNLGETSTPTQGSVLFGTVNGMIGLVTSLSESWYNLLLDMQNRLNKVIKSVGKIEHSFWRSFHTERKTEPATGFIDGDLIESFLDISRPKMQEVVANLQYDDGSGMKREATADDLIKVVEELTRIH

Take `CC[C@H](C(=O)N1CCCC[C@H]1C(=O)O[C@H](CCc1ccc(OC)c(OC)c1)c1cccc(OCC(=O)NCCCOCCOCCOCCCNC(=O)COc2cccc3c2C(=O)N(C2CCC(=O)NC2=O)C3=O)c1)c1cc(OC)c(OC)c(OC)c1` (some centres unmarked) [dFKBP7]: the “CD19 positive target tumor cell depletion in the presence of dFKBP7” value in assay [1] (1:3 ratio, 250 nM, 4 HR to 24 HR) is “halted”. In addition, in assay [1] (1:3 ratio, 24 HR-30 HR), the “CD19 positive target tumor cell depletion after removal of dFKBP7” value was “rapid target tumor cell depletion”. Moreover, in assay [1] (CD19 positive Daudi cells, 1:3 ratio, 24 hours, indicated concentrations), the “Daudi cell depletion, dose response” value is listed as “Daudi cell depletion was rescued”. In assay [1] (Daudi and Raji, 1:1 ratio, retreatment with 250 nM dFKBP7), the “CD19 positive tumor cells” value is given as “not affected”. Moreover, the “Re-expression of CD19-CAR-dTAG protein after washout” value at CD19-CAR-dTAG (Jurkat T-cells, 250 nM for 4 hours, then washouts) is given as “recovered”. The “Degradation of CD19-CAR-dTAG, time dependence” value on CD19-CAR-dTAG (Jurkat T-cells, 250 nM, indicated time) was “time-dependent degradation of CD19-CAR-dTAG”. Further, at CD19-CAR-dTAG (Jurkat T-cells, indicated dose, 4 hours), the “Degradation of CD19-CAR-dTAG, dose dependence” value is reported as “dose-dependent degradation of CD19-CAR-dTAG”. Further, the “Rheostat chemical control of CD19-CAR-dTAG expression” value at CD19-CAR-dTAG (Jurkat cells, 250 nM at 0 and 8 hours, washed out at 4 and 12 hours) was “exquisite chemical control of CD19-CAR-dTAG protein levels allowing for modulation within hours”.
